According to US20130225535A1, “SYNERGISTIC FUNGICIDAL COMPOSITION” (MAKHTESHIM CHEMICAL WORKS LTD., priority 2010, published 2013):

Columns and labels:
Plasmopara viticola = experiment: Control of Plasmopara viticola (downy mildew) on detached grapevine leaves, ED90 by Probit analysis, synergy by Wadley method; assay type: in vivo; conditions: detached grape leaves, spray before inoculation, 7-10 days after inoculation
Protocol: (§1) A synergistic effect exists whenever the action of an active ingredient combination is greater than the sum of the actions of the individual components. The Wadley Method is well-known method for determining whether synergy exists. In the Wadley Method, synergistic activity is determined from dose, response curves. With this method, the efficacy of the active ingredient (“a.i.”) is determined by comparing the degree of fungal attack on treated plants with that on untreated, similarly inoculated and incubated check plants. Each a.i. is generally tested at multiple (e.g., six) concentrations and dose response curves are generated. The dose response curves are used to establish the ED90 (i.e., estimated concentration required to produce 90% killing of fungi) of the individual compounds as well as of the combinations (ED90observed). The experimentally found values of the mixture at a given weight ratio are compared with the values that would have been found where only a complementary efficacy of the components was present (ED90 (A+B) expected). The ED90 (A+B) expected is generally calculated according to Wadley (Levi et al., EPPO-Bulletin 16, 1986, 651-657) or (Wadley, F. M., U.S. Dep. Agric., Agric. Res. Adm., Bur. Entomol. And Plant Quar. ET-223, 1945, 8) as follows:
(§2) wherein a and b are the weight ratios of the compounds A and B in the mixture and the indexes (A), (B) and (A+B) refer to the observed ED90values of the compounds A, B or the A+B mixture thereof. The ratio ED90 (A+B)expected/ED90 (A+B)observed expresses the level of the synergistic factor (SF).
A trial was conducted to in order to estimate the synergistic interaction between three fungicides in controlling the oomycete, Plasmopara viticola, the downy mildew causal agent, in grapevines.
Commercially available compositions of dimethomorph (Sphinx 50 SC), folpet (Folpan 80 WDG) and fosetyl-Al (Aliette 80 WDG), as well as 80 wt. %, WDG composition comprising a combination of dimethomorph, folpet and fosetyl-Al (mixed at a weight ratio of 1:5:10) were suspended in water, diluted to a series of concentrations in water and sprayed onto the lower leaf surface of detached grape leaves to initial run off.
Two cultivars of grapevines (Vitis vinifera) were used: Carinian and Merlo, both susceptible to P. viticola. Grafted Carinian plants were grown in pots in the greenhouse whereas Merlo vines were grown in the field. Plants were regularly sprayed with appropriate fungicides to protect them against powdery mildew (Uncinulla necator). In total, five experiments were conducted, three with Carinian and two with Merlo.
The 3rd and the 4th leaf from top of a branch were detached, sprayed on lower leaf surface with a fungicide, three leaves per fungicide per concentration per cultivar, and placed lower surface uppermost on moist filter paper in a plastic tray (70×50×5 cm). Normally, one tray served for one cultivar and one fungicide and contained 27 leaves (21 leaves treated with 7 doses of a fungicide+6 control untreated leaves).
Trays with the sprayed leaves were placed in a ventilated hood for about one hour until the spray droplets dried off and thereafter were inoculated with the pathogen.
An isolate of P. viticola was propagated on detached leaves of Carinian by repeated inoculations. Sporangia were harvested from freshly sporulating leaves into ice-cold distilled water, their concentration adjusted to 1×10^5 sporangia/ml. Sporangial suspension was sprayed onto the lower surface of the treated and control leaves laying in the trays. Trays were thereafter wrapped with cellophane bags, kept at 15° C. in the dark for 20 h and then at 20° C. under 14 h light photoperiod. At 7-10 days after inoculation, disease development was recorded by visual estimation of the leaf area occupied with sporophores and spores of P. viticola.
Mean sporulating leaf area was then calculated for each treatment (n=3, n for control=6). A mean value was calculated for all four controls in an experiment. […]

[1] = tested on: DMM-resistant isolates of Pseudoperonospora cubensis; experiment: Control of DMM-resistant isolates of Pseudoperonospora cubensis on intact cucumber plants, ED90 and Wadley synergy; assay type: in vivo; conditions: for ED90 observed Trial 1: Trial 1, downy mildew lesions per leaf; for ED90 observed Trial 2: Trial 2, downy mildew lesions per leaf
Protocol: as §1, §2
A trial was conducted to estimate the synergistic interaction between three fungicides in controlling DMM-resistant isolates of P. cubensis, the causal agent of downy mildew in cucurbits.
Commercially available compositions of dimethomorph (Sphinx 50 SC), folpet (Folpan 80 WDG) and fosetyl-Al (Aliette 80 WDG), as well as 80 wt. %, WDG composition comprising a combination of dimethomorph, folpet and fosetyl-Al (mixed at a weight ratio of 1:5:10) were suspended in water, diluted to a series of concentrations in water, and sprayed initial run off.
Two isolates of P. cubensis were used. Intact, two-true leaf cucumber plants (n=2) were used for inoculation. Inoculation and incubation were conducted according to the description in example 1, except that sporangial concentration was adjusted to 2×103 sporangia/ml. Disease records were taken by counting the number of downy mildew lesions per leaf (n=4). Data analysis was done as described in Example 1.

Structure (SMILES) | ED90 observed Trial 1 (Plasmopara viticola) | ED90 observed Trial 2 (Plasmopara viticola) | ED90 observed Trial 3 (Plasmopara viticola) | ED90 observed Trial 4 (Plasmopara viticola) | ED90 observed Trial 5 (Plasmopara viticola) | ED90 observed Trial 1 [1] | ED90 observed Trial 2 [1]
CCO[PH](=O)O [Fosetyl-Al, fosetyl-Al] | 936 µg/mL | 1522 µg/mL | 611 µg/mL | 274 µg/mL | 297 µg/mL | 2088 µg/mL | 508 µg/mL
COc1ccc(C(=CC(=O)N2CCOCC2)c2ccc(Cl)cc2)cc1OC [Dimethomorph, dimethomorph] | 2.42 µg/mL | 1.81 µg/mL | 0.91 µg/mL | 3.95 µg/mL | 2.25 µg/mL | 701 µg/mL | 424 µg/mL
O=C1c2ccccc2C(=O)N1SC(Cl)(Cl)Cl [Folpet, folpet] | 65.8 µg/mL | 30.6 µg/mL | 57.1 µg/mL | 61.8 µg/mL | 39.8 µg/mL | 254 µg/mL | 81 µg/mL
